Laboratory results: patent US7094789B2, “5-substituted isoquinoline derivatives” (Asahi Kasei Pharma Corporation, priority 2002, dated 2006)
Structures can show the parent of a compound that is named as a salt.

Legend:
intraocular pressure = assay: Intraocular pressure reducing action (Test Example 4); type: in vivo, Japanese white rabbit; conditions: for inhibition in vivo at 1 %, 50 µL: Oryctolagus cuniculus, topical, 1% aqueous solution, 50 μl dropped to the left eye, after 2 hours, read-out: Intraocular pressure reducing action (reduction ratio) (%); for intraocular pressure reducing activity: result in words, rabbit
Experimental: A Japanese white rabbit having a body weight of about 2 kg was placed in a positioner and naturalized for one week before the experiment. An ophthalmologic local anesthesant (Benoxil) was administered to the left eye, and then intraocular pressure was measured by using a tonometer (Classic 30, Solan). The initial value of the intraocular pressure was measured, then 50 μl of a test compound (1% aqueous solution) was dropped to the left eye, and after 2 hours, the intraocular pressure was measured. The intraocular pressure reducing action of the test compounds is shown in Table 7 mentioned below as ratios (%) of reduction of intraocular pressure based on the initial value of the intraocular pressure.

[1] = system: ovalbumin-induced constriction of respiratory tract; assay: Respiratory tract constriction suppression action (Test Example 3); type: in vivo, Hartley guinea pigs; conditions: ovalbumin-immunized guinea pigs; test medicament via hind leg vein; 15 minutes after administration
Experimental: Four-week old Hartley guinea pigs (male) were immunized by intraperitoneal administration of ovalbumin (Sigma, Grade V) in amounts of 1 mg for each animal on the day on which the experiment was started, 3 mg for each animal after 2 days, and 10 mg for each animal after 4 days. Twelve to fourteen days after the final immunization, the ovalbumin-immunized guinea pigs were anesthetized by intraperitoneal administration of about 40 mg/kg of pentobarbital (Somnopentyl), and the tracheas were taken out. Subsequently, a cannula (SP-110, Natsume) was inserted into each trachea, and one end of the cannula was connected to an artificial respirator (Model-b83, Harvard). The aeration conditions were set at 6 ml per kilogram and 60 times per 1 minute. Further, a cannula for medicament administration (JMS wing needle 23G 3/4) was inserted into a hind leg vein. Myoblock (Organon Technica) was administered in an amount of 0.5 mg/kg from the cannula inserted into the hind leg vein to stop the spontaneous breathing, and after 2 or 3 minutes, 0.3 mg/kg of ovalbumin was administered to induce constriction of respiratory tract. The increase of airway resistance value 2 minutes after the induction (measurement apparatuses: pressure transducer TR-603T, respiratory amplifier AR-601G, and recorder RTA-3100, Nihon Kohden Corp.) was confirmed to be above 80 cm H2O or higher, and then, a solution of a test medicament was administered from the cannula inserted into the hind leg vein, and the airway resistance value was continuously measured for 15 minutes after the administration to determine the effect.

[2] = system: thoracic aorta constricted with phenylephrine; assay: Vasoconstriction inhibitory action (Test Example 2); parameters: species or system Rats (Wistar); conditions: result in words; rat thoracic aorta, phenylephrine
From the text: Rats (Wistar, 11-week old) were bleeded to death and laparotomized to take out the thoracic aorta. That aorta was cut into a ring of a length of about 3 mm in a conventional manner (Asano, T., et al., J. Pharmacol. Exp. Ther., 241, pp. 1033–1040 (1987)) and hung in 10-ml organ bath filled with Krebs-Hensright nutrient solution bubbled with a mixed gas of 95% O2 and 5% CO2. One end of the blood vessel was connected to an isometric transducer (FD Pickup TB-912T, Nihon Kohden) and applied with 2.5 g of resting tension, and constriction and relaxation reactions of the aorta were recorded. The aorta was constricted with phenylephrine (1 μM, Sigma) and then added with a test compound (1 μM), and the vasoconstriction inhibitory action thereof was observed. The vasoconstriction inhibitory actions of the test compounds are shown in Table 6 mentioned below as the relaxation ratios, which are based on the vasoconstriction with phenylephrine immediately before the addition of the test compound taken as 100%.

[3] = biological target: T1, myosin light chain phosphorylation enzyme (MLCK) (Gallus gallus, UniProt P11799); assay: Action on myosin light chain phosphorylation enzyme (MLCK) activity; type: biochemical, chicken; conditions: for inhibition of MLCK: result in words; for IC50: MLCK from chicken gizzard smooth muscle, ELISA, 100 μM ATP, read-out: Myosin light chain phosphorylation enzyme inhibitory action IC50
T1 construct: purified from chicken gizzard smooth muscle by a conventional method; from tissue; host or cells: chicken gizzard smooth muscle
Experimental: A myosin light chain phosphorylation enzyme (MLCK) was purified from chicken gizzard smooth muscle by a conventional method (Yoshida, M., et al., J. Biochem., 99, 1027–1036 (1986)). The myosin regulatory light chain as a substrate was purified from the chicken gizzard smooth muscle by a conventional method (Grand, R. J., et al., Biochem. J., 211, 267–272 (1983)). The MLCK activity was measured by ELISA using pLC1 described in Test Example 1 (Sakurada, K., et al., J. Biochem., 115, 18–21 (1994)). The myosin regulatory light chain was diluted in phosphate-buffered saline (PBS, Sigma) to a concentration of 5.0 µg/ml, added to 96-well Immunoplate (Nunc) in a volume of 100 μl per well and left stand overnight at 4° C. Each well was washed with PBS, and 25 mM Tris/HCl buffer containing 100 μM ATP, 3 mM MgCl2, 1 mM CaCl2, 100 ng/ml of calmodulin (Sigma) and 100 ng/ml of MLCK (pH 7.4, Buffer A) was added to each well and incubated at 30° C. for 10 minutes. In a volume of 100 μl each of 20% aqueous phosphoric acid solution was added to each well to terminate the enzymatic reaction. Each well was washed with 25 mM Tris/HCl buffer (TTBS) containing 0.1% Tween 20, and then 100 μl each of pLC1 described in Test Example 1 was added to each well and incubated at room temperature for 90 minutes.
Each well was washed with TTBS, and then 100 μl of the HRP-labeled rabbit anti-mouse IgG antibodies (Bio-Rad) were added to each well and incubated at room temperature for 90 minutes. Each well was washed with TTBS, and then 25 mM citrate buffer (pH 5.0) containing orthophenylenediamine (Sigma) as a substrate of HRP and aqueous hydrogen peroxide (0.03%) was added in a volume of 100 μl per well and incubated at room temperature for 5 minutes. 50 μl of 4 N sulfuric acid was added to each well to terminate the reaction, and then absorbance was measured by using an immunoplate reader (Bio-Rad).

[4] = system: OVA-induced respiratory tract inflammation; assay: Respiratory tract inflammation suppressing action (Test Example 6); type: in vivo, BALB/c female mice; conditions: result in words; OVA mice
Experimental: According to the method described in Henderson, W. R., et al., Am. J. Respir. Cric. Care Med., 165(1), 108–116 (2002), suppressing action on bronchial inflammation was confirmed. BALB/c female mice (7-week old) were used for the test, each group consisting of 7 mice, and the control group consisting of 11 or 12 mice. The mice were intraperitoneally administered with ovalbumin (OVA, 100 ng, Sigma) and 1 mg of aluminum hydroxide for initial immunization, and after 2 weeks, they are subcutaneously administered with 10 ng of OVA as additional immunization. After further 1 week, a test compound was dissolved in water containing 0.5% carboxymethylcellulose and orally administered (30 mg/kg) to the test animals once a day for 5 days. The control group was similarly given only with water containing 0.5% carboxymethylcellulose. After 1 hour, the mice were orally inhaled with 2% OVA for 10 minutes to induce a respiratory tract inflammation. […] After 24 hours, alveoli in the lungs of the test animals were washed with physiological saline, and the total infiltrated white blood cells (WBC) were counted.

Row | inhibition of MLCK [3] | IC50 [3] [µM] | SMILES | inhibition in vivo at 1 %, 50 µL (intraocular pressure) [%] | constriction of respiratory tract (airway resistance value) [1] | vasoconstriction inhibitory action [2] | intraocular pressure reducing activity (intraocular pressure) | infiltrated white blood cell number [4]
1 |  |  | Cc1cncc2cccc(N[C@H]3CC[C@H](N)CC3)c12.Cl [Example 121, Trans-N-(4-methyl-5-isoquinolyl)-1,4-cyclohexanediamine hydrochloride] | 31.3 | significantly improved the constriction of respiratory tract | significant vasoconstriction inhibitory action |  | 
2 | did not inhibit MLCK |  | Cl.OCCN1CCC(Nc2cccc3cnccc23)CC1 [Example 144, 1-(2-Hydroxyethyl)-4-(5-isoquinolyl)aminopiperidine hydrochloride] |  | significantly improved the constriction of respiratory tract |  | significant intraocular pressure reducing activity | 
3 |  |  | Cl.Clc1cncc2cccc(NC3CCNCC3)c12 [Example 118, 4-(4-Chloro-5-isoquinolyl)aminopiperidine hydrochloride] | 25 | significantly improved the constriction of respiratory tract |  |  | 
4 |  |  | Cc1cncc2cccc(O[C@H]3CC[C@H](N)CC3)c12.Cl [Example 140, Trans-4-[(4-methyl-5-isoquinolyl)oxy]cyclohexylamine hydrochloride] |  | significantly improved the constriction of respiratory tract | significant vasoconstriction inhibitory action | significant intraocular pressure reducing activity | 
5 |  |  | Cl.NCCN(CCS(=O)(=O)c1ccccc1)S(=O)(=O)c1cccc2c(O)nccc12 [Example 12, N-[(1-Hydroxy-5-isoquinolyl)sulfonyl]-N-[2-(phenylsulfonyl)ethyl]ethylenediamine hydrochloride] | 13.3 | significantly improved the constriction of respiratory tract | significant vasoconstriction inhibitory action |  | 
6 |  |  | c1cc(NC2CCCNC2)c2ccncc2c1 (racemic) [Example 29, 3-N-(5-Isoquinolyl)aminopiperidine hydrochloride] |  | significantly improved the constriction of respiratory tract |  |  | 
7 | did not inhibit MLCK |  | Cc1cncc2cccc(NC3CCNCC3)c12.Cl [Example 106, 4-(4-Methyl-5-isoquinolyl)aminopiperidine hydrochloride] | 31.3 | significantly improved the constriction of respiratory tract | significant vasoconstriction inhibitory action |  | decrease of infiltrated white blood cell number
8 |  | > 50 | Cl.NCCCN(CCc1cccs1)S(=O)(=O)c1cccc2cnccc12 [Example 2, N-[(5-Isoquinolyl)sulfonyl]-N-[2-(2-thienyl)ethyl]-1,3-propylenediamine hydrochloride] |  | significantly improved the constriction of respiratory tract | significant vasoconstriction inhibitory action |  | 
9 |  |  | Cl.N[C@H]1CC[C@H](Oc2cccc3cncc(Br)c23)CC1 [Example 133, Trans-4-[(4-bromo-5-isoquinolyl)oxy]cyclohexylamine hydrochloride] |  | significantly improved the constriction of respiratory tract |  | significant intraocular pressure reducing activity | 
10 |  | > 100 | Cl.c1cc(NC2CCNCC2)c2ccncc2c1 [Example 20, 4-(5-Isoquinolyl)aminopiperidine hydrochloride] | 35.7 | significantly improved the constriction of respiratory tract |  |  | 
11 |  |  | Cc1cncc2cccc(NC3CCN(CCO)CC3)c12.Cl [Example 146, 1-(2-Hydroxyethyl)-4-(4-methyl-5-isoquinolyl)aminopiperidine hydrochloride] |  | significantly improved the constriction of respiratory tract | significant vasoconstriction inhibitory action | significant intraocular pressure reducing activity | 
12 |  |  | Cl.Nc1nccc2c(OCC3CCCNC3)cccc12 (centres unmarked) [Example 11, 3-[(1-Amino-5-isoquinolyl)oxy]methylpiperidine hydrochloride] |  | significantly improved the constriction of respiratory tract |  |  | 
